From patent US7642362B2, “Compounds as semaphorin inhibitors” (Dainippon Sumitomo Pharma Co., Ltd., priority 2002, dated 2010)

Key:
[1] = biological target: T1, mouse semaphorin 3A (Sema3A) (Mus musculus, UniProt O08665); test: Suppressing action on the growth cone collapse activity of Sema3A in chick dorsal root ganglion culture; type: cell-based; conditions: E7 chick embryo dorsal root ganglions; compound added 1 hour before 3 units/ml mouse Sema3A; growth cone collapse rate after another 1 hour
T1 sequence (O08665 21-772): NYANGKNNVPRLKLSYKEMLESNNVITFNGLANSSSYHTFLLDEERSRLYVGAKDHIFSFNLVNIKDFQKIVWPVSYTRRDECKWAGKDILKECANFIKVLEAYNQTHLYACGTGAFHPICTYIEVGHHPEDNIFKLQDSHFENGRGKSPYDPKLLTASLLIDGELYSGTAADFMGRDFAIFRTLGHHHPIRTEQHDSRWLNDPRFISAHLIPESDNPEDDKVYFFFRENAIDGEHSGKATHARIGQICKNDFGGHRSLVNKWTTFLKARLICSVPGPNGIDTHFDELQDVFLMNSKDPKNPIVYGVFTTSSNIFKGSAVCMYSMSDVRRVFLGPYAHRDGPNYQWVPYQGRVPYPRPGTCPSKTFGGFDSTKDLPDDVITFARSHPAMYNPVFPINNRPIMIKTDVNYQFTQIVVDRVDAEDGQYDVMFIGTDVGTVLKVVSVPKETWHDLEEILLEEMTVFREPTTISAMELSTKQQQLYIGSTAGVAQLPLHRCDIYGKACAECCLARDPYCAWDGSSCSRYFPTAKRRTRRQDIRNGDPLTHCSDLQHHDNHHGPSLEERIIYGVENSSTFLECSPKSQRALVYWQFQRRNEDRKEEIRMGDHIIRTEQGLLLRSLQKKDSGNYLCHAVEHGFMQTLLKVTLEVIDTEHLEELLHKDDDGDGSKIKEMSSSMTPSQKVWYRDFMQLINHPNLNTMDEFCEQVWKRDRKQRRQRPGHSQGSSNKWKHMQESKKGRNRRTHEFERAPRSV
Excerpt: The growth cone collapse activity of semaphorin described above means an activity to make growth cones disappear. This activity is observed after performing the following steps: cultivating nerve cells (generally tissue explants of ganglions) for a given period of time in vitro until the extended neurites as well as the growth cones at the edge of said neurites can be observed; and then adding thereto a given concentration (e.g. about 3 unit/ml; 1 unit/ml is defined as a semaphorin concentration in which 50% of the growth cones are collapsed) of semaphorin and cultivating for another given period of time (e.g. one hour). In order to get the extended neurites and the growth cones at the edge of said neurites ready for the observation, the nerve cells are generally cultivated for 10 to 20 hours in vitro, which duration can be altered according to a nerve variant and culture conditions. When the growth cone collapse caused by semaphorin is suppressed by, for example, the addition of a compound to this experimental system at an appropriate concentration about one hour prior to the addition of semaphorin, then such compound is regarded as a semaphorin inhibitor, especially as a compound with suppressing action on the growth cone collapse activity of semaphorin.
A 96-well plate (Sumitomo Bakelite Co., Ltd.) pre-coated with polylysine was further coated with laminine (20 μg/ml of laminine, for 1 hour at room temperature). Each well was added with 100 μl of medium (F12 medium containing 10% bovine fetal serum, 20 ng/ml of NGF, 100 units/ml of penicillin and 100 μg/ml of streptomycin) which medium was then inoculated with dorsal root nerve ganglions excised from E7 (Embryonic day 7) chick embryo and cultured for 16 to 20 hours under 5% CO2 at 37° C. Subsequently, the object compounds were added to media at various concentrations and 3 units/ml of mouse semaphorin 3A (Sema3A) was added after cultivating for 1 hour. The cultures were further incubated for another 1 hour. Glutaraldehyde was quickly added therein after said 1 hour to make the final concentration 1%. The cultures were then left for 15 minutes at room temperature so that the tissue sections were fixed, and collapse rates of the growth cones were microscopically determined. IC50 values was defined as a concentration of each compound at which concentration the collapse rate C equals to(A+B)/2, wherein (A) % is the collapse rate of growth cone of the negative control group (neither compounds nor Sema3A was added); (B) % is the collapse rate of growth cone of the positive control group (compounds were not added but Sema3A was added); and (C) % is the collapse rate of growth cone of the test group (each one compound and Sema3A were added).

[2] = Solubility of the purified compounds in solvents; type: physicochemical
semaphorin = test: Semaphorin inhibitory activity (earlier finding of the inventors)
nerve regeneration = test: Nerve regeneration in vivo (earlier finding of the inventors)

| IC50 [1] | Solubility in DMSO [2] | Solubility in hexane [2] | Solubility in methanol [2] | Solubility in water [2] | SMILES | Semaphorin inhibitory activity (semaphorin) | Promotion of nerve regeneration (nerve regeneration) |
| --- | --- | --- | --- | --- | --- | --- | --- |
| 861 nM | soluble | Insoluble | soluble | Insoluble | CC(=O)[C@]12c3c(cc(O)c(O)c3C(=O)O)OC[C@]13Cc1c(oc4cc(O)c(O)c(C(=O)O)c4c1=O)[C@H]2C(C)=C(O)C3=O (relative stereo) [SPF-3059-16] | – | – |
| – | – | – | – | – | CC(=O)c1c(C)c(C(=O)C2COc3cc(O)c(O)c(C(=O)O)c3C2=O)cc2c(=O)c3c(C(=O)O)c(O)c(O)cc3oc12 (centres unmarked) [SPF-3059-1] | have semaphorin inhibitory activity | promote nerve regeneration in vivo |
| 3460 nM | soluble | Insoluble | soluble | Insoluble | Cc1cc(=O)c2c(o1)-c1c(c3c(c(O)c1C(=O)O)OC1(C)Cc4oc5cc(O)c(O)c(C(=O)O)c5c(=O)c4C3O1)OC2 (centres unmarked) [SPF-3059-8] | – | – |
| 225 nM | soluble | Insoluble | soluble | Insoluble | CC1=Cc2oc3cc(O)c(O)c(C(=O)O)c3c(=O)c2C(c2c(C)oc3c(c2=O)COc2cc(O)c(O)c(C(=O)O)c2-3)O1 (centres unmarked) [SPF-3059-17] | – | – |
| 838 nM | soluble | Insoluble | soluble | Insoluble | CC12Cc3oc4cc(O)c(O)c(C(=O)O)c4c(=O)c3C(O1)C1C(=O)C3=C(OC1(C)O2)c1c(cc(O)c(O)c1C(=O)O)OC3 (centres unmarked) [SPF-3059-19] | – | – |
| 912 nM | soluble | Insoluble | soluble | Insoluble | CC(=O)c1c(C)c(C(=O)c2coc3cc(O)c(O)c(C(=O)O)c3c2=O)cc2c(=O)c3c(O)cc(O)c(O)c3oc12 [SPF-3059-22] | – | – |
| 728 nM | soluble | Insoluble | soluble | Insoluble | CC(=O)c1cc(-c2c(C(C)=O)cc3c(=O)c4c(C(=O)O)c(O)c(O)cc4oc3c2C(C)=O)cc(C(=O)c2c(O)cc(O)c(O)c2C(=O)O)c1O [SPF-3059-23] | – | – |
| 19.9 nM | soluble | Insoluble | soluble | Insoluble | CC(=O)c1c2c(c3ccc4c(=O)c5c(C(=O)O)c(O)c(O)cc5oc4c3c1C)C(=O)C1(CC2)COc2cc(O)c(O)c(C(=O)O)c2C1=O (centres unmarked) [SPF-3059-38] | – | – |
| 233 nM | soluble | Insoluble | soluble | Insoluble | CC(=O)C1=C2c3cc(O)c(O)cc3OCC2(C(=O)/C=C(/C)O)Cc2c1oc1cc(O)c(O)c(C(=O)O)c1c2=O (centres unmarked) [SPF-3059-40] | – | – |
| 78.1 nM | soluble | Insoluble | soluble | Insoluble | CC(=O)c1c(C)c(-c2oc3cc(O)c(O)c(C(=O)O)c3c(=O)c2Cc2c(C)oc3c(c2=O)COc2cc(O)c(O)c(C(=O)O)c2-3)cc2c(=O)c3cc(O)c(O)cc3oc12 [SPF-3059-42] | – | – |
